From the NIST ThermoML archive (doi:10.1016/j.jct.2006.03.007)

Assay: molar heat capacity at constant pressure
Details: 101.33 kPa, Crystal

O=C(O)c1cccc(C(=O)O)n1 [pyridine-2,6-dicarboxylic acid]
Details | molar heat capacity at constant pressure [J/K/mol]
84.05 K | 56.42
86.4 K | 56.44
88.71 K | 56.5
90.97 K | 56.59
93.19 K | 56.71
95.37 K | 56.85
97.51 K | 57.03
99.63 K | 57.23
101.72 K | 57.46
103.77 K | 57.71
105.81 K | 57.98
107.81 K | 58.27
109.8 K | 58.59
111.76 K | 58.92
113.7 K | 59.27
115.63 K | 59.65
117.53 K | 60.03
119.42 K | 60.44
121.29 K | 60.86
123.15 K | 61.3
124.99 K | 61.76
126.82 K | 62.23
128.63 K | 62.72
130.43 K | 63.22
132.22 K | 63.73
133.99 K | 64.25
135.76 K | 64.8
137.51 K | 65.35
139.25 K | 65.91
140.98 K | 66.49
142.69 K | 67.08
144.4 K | 67.68
146.1 K | 68.29
147.79 K | 68.91
149.46 K | 69.55
151.13 K | 70.19
152.79 K | 70.84
154.44 K | 71.5
156.08 K | 72.18
157.72 K | 72.86
159.35 K | 73.55
160.97 K | 74.25
162.58 K | 74.96
164.18 K | 75.68
165.77 K | 76.4
167.35 K | 77.13
168.92 K | 77.86
170.49 K | 78.61
172.04 K | 79.36
173.59 K | 80.11
175.13 K | 80.88
176.66 K | 81.65
178.19 K | 82.42
179.71 K | 83.2
181.22 K | 83.99
182.72 K | 84.78
184.23 K | 85.59
185.73 K | 86.39
187.22 K | 87.21
188.71 K | 88.03
190.19 K | 88.85
191.66 K | 89.68
193.13 K | 90.52
194.59 K | 91.35
196.06 K | 92.2
197.5 K | 93.04
200.08 K | 94.57
204.09 K | 96.99
207.23 K | 98.92
209.37 K | 100.26
211.49 K | 101.59
213.62 K | 102.95
217.8 K | 105.66
219.85 K | 107.01
221.9 K | 108.37
223.94 K | 109.74
225.95 K | 111.1
227.91 K | 112.43
229.9 K | 113.8
231.78 K | 115.1
233.73 K | 116.46
235.64 K | 117.81
237.61 K | 119.2
239.52 K | 120.56
241.4 K | 121.91
243.27 K | 123.26
245.17 K | 124.63
247.09 K | 126.04
248.98 K | 127.43
250.89 K | 128.84
252.77 K | 130.24
254.65 K | 131.65
256.51 K | 133.04
258.38 K | 134.45
260.23 K | 135.86
262.08 K | 137.27
263.92 K | 138.68
265.74 K | 140.08
267.58 K | 141.5
269.4 K | 142.91
271.2 K | 144.31
273 K | 145.72
274.79 K | 147.12
276.55 K | 148.51
278.32 K | 149.91
280.09 K | 151.31
281.85 K | 152.71
283.59 K | 154.09
285.32 K | 155.48
287.04 K | 156.85
288.74 K | 158.22
290.44 K | 159.59
292.1 K | 160.93
293.75 K | 162.27
295.39 K | 163.6
297.06 K | 164.95
298.72 K | 166.31
300.37 K | 167.65
302.01 K | 168.99
303.64 K | 170.32
305.27 K | 171.65
306.88 K | 172.98
310.09 K | 175.62
311.68 K | 176.93
313.25 K | 178.21
314.76 K | 179.47
316.65 K | 181.03
319.26 K | 183.18
322.04 K | 185.48
324.78 K | 187.75
327.48 K | 189.98
330.16 K | 192.2
332.81 K | 194.4
335.45 K | 196.59
338.09 K | 198.77
340.74 K | 200.97
343.44 K | 203.2
346.14 K | 205.43
348.74 K | 207.58
351.31 K | 209.7
353.85 K | 211.78
356.38 K | 213.86
358.86 K | 215.9
361.34 K | 217.92
363.79 K | 219.91
366.21 K | 221.88
368.6 K | 223.82
370.97 K | 225.73
375.64 K | 229.5
378 K | 231.38
